Format in all cases: biochemical
One assay addresses T1, JAK3 (Homo sapiens, UniProt P52333).
T1 construct: commercial Z'-LYTE kinase assay (Life Technologies)
T1 sequence (P52333 1-1124): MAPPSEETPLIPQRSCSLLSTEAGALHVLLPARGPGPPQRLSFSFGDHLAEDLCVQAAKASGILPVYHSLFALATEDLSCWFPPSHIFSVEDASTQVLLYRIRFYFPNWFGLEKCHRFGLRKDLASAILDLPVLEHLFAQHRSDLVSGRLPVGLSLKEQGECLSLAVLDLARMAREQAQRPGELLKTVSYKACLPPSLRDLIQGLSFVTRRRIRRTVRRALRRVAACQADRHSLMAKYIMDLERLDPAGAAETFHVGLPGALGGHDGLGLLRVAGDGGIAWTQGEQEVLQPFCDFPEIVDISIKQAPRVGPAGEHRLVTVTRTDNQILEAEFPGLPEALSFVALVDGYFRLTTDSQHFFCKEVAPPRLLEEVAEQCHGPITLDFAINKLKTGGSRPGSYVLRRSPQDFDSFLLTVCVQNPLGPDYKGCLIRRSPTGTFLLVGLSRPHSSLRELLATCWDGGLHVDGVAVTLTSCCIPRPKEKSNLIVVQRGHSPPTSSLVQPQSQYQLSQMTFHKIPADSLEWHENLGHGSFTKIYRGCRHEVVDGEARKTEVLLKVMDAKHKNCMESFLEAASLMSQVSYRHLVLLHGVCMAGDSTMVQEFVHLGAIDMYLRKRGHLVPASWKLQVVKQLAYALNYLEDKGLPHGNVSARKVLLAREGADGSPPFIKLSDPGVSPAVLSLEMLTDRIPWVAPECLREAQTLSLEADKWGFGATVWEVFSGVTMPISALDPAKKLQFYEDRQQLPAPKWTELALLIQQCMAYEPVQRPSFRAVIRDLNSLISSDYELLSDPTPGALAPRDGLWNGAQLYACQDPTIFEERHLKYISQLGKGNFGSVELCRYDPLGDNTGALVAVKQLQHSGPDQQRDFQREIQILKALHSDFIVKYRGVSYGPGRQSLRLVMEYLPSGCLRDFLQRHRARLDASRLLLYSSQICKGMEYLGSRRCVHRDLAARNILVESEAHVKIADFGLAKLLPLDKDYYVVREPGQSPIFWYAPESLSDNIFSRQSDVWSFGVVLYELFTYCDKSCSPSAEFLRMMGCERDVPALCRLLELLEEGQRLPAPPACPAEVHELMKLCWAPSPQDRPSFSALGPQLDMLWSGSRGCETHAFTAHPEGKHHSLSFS
Put plainly: Z'-LYTE FRET kinase assay, 10-point titration.

The target of the next assay is JAK2 (Homo sapiens, UniProt O60674). Put plainly: kinase inhibition assay.
JAK2, sequence (O60674 whole entry): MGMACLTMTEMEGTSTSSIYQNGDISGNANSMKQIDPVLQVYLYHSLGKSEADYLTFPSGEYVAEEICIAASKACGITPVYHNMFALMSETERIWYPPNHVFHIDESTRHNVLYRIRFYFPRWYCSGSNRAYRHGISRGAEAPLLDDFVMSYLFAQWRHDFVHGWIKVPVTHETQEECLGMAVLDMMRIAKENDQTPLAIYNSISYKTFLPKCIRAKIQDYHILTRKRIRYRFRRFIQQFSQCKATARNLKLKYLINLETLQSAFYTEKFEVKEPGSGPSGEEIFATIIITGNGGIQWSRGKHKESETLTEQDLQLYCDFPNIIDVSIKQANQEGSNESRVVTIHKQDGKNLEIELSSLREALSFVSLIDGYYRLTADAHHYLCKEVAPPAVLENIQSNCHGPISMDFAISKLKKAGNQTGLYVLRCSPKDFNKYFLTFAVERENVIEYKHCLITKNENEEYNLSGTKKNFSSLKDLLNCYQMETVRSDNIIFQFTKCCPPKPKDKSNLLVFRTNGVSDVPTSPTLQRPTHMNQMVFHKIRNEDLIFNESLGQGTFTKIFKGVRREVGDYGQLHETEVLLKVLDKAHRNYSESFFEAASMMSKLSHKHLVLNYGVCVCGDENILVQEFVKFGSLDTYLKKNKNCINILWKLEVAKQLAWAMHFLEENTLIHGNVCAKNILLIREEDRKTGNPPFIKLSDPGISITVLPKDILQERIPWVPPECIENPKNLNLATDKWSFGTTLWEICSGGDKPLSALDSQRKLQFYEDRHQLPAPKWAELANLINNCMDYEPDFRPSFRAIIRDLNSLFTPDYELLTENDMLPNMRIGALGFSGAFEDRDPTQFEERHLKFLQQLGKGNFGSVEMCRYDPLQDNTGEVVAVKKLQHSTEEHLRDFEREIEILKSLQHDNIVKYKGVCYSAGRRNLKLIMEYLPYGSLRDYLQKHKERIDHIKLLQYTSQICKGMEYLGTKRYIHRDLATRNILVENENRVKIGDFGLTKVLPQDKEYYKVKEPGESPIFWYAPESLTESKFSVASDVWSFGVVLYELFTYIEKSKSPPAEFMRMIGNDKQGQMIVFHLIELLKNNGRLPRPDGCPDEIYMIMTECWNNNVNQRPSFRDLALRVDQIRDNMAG
For a further assay, the target named is JAK1 (Homo sapiens, UniProt P23458). In words: kinase inhibition assay.
JAK1, sequence (P23458 whole entry): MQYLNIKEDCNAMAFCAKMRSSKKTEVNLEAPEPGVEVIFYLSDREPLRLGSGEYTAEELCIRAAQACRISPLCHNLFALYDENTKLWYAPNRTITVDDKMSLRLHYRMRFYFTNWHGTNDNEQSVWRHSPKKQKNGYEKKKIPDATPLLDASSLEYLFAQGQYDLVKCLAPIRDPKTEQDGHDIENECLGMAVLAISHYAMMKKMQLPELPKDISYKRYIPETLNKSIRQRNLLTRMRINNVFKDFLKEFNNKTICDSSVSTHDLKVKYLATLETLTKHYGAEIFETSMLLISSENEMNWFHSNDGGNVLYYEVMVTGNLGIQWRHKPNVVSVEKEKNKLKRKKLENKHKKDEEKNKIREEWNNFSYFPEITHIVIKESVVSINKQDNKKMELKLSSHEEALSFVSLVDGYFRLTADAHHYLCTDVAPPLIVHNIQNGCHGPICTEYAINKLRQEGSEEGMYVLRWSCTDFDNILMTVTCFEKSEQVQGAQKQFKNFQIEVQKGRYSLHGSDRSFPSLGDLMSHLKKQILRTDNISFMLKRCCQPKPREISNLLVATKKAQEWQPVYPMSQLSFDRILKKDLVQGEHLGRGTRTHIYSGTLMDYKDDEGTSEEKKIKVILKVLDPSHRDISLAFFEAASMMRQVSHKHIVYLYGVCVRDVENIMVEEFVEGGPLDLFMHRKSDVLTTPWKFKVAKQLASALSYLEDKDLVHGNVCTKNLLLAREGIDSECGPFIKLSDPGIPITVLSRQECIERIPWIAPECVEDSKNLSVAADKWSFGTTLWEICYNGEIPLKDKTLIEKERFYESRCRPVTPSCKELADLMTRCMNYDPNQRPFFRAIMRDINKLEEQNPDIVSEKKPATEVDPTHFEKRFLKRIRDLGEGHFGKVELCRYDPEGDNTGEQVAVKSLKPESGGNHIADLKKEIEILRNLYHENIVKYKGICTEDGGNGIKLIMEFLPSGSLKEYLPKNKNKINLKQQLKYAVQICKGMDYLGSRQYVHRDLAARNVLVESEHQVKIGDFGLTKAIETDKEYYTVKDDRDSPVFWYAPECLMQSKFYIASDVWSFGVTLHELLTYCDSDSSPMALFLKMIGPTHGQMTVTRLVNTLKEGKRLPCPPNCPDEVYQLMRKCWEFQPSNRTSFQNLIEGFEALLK

pIC50: −log10 of the molar value.

By pIC50 is commonly meant the IC50 on a negative log10 scale, so that one unit is a factor of ten. As to `C=CC(=O)N1C[C@H](COc2nc(Nc3cnn(C)c3)nc3[nH]cc(Cl)c23)[C@@H](OC)C1` [compound 1, PF-06459988], the pIC50 at JAK3 is 8.30.
Broadly, the inhibition is the percentage by which the read-out fell short of the control. In the case of `C=CC(=O)Nc1cc(NC(=O)c2n[nH]c3ccccc23)ccc1F` [compound 5], the negative logarithm of the IC50 (pIC50) against JAK3 is 6.41. For the same compound, the inhibition at 10 µM against JAK2 turned out to be 62%; against JAK1 it was 18%.
As to `C=CC(=O)Nc1cc(NC(=O)c2n[nH]c3c2CCC3)ccc1F` [compound 9], the pIC50 at JAK3 was 5.90.

Values taken from paper PMC6593427, “DUckCov: a Dynamic Undocking‐Based Virtual Screening Protocol for Covalent Binders” (Chemmedchem, 2019).
